# Experimental data as given in ChEMBL document CHEMBL1137576, “Interactions of hepatitis B core antigen and peptide inhibitors” (J Med Chem, 2007).
# Where a SMILES comes first, the peptide text is derived from it.
# Columns and labels:
# [1] = biological target: Core antigen (Hepatitis B virus) (UniProt Q03732); assay: (§1) Binding affinity to HBcAg
# Core antigen = Core antigen (Hepatitis B virus, UniProt Q03732); assay: as §1
# Core antigen, sequence (Q03732 whole entry): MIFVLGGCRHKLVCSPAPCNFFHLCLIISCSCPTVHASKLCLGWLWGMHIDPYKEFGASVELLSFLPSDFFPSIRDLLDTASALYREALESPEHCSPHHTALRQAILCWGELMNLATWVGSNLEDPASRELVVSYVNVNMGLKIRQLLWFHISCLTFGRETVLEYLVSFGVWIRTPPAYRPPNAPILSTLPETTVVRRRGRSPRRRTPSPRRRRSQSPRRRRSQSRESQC
# Core antigen (Hepatitis B virus), sequence (Q03732 as listed by the source): as the sequence (Q03732 whole entry) above
SMILES,Ka [1],Kd (Core antigen) [µM]
CSCC[C@H](NC(=O)[C@H](CCCNC(=N)N)NC(=O)CNC(=O)[C@H](CC(C)C)NC(=O)[C@H](CC(C)C)NC(=O)[C@H](CO)NC(=O)[C@H](CCCNC(=N)N)NC(=O)[C@H](Cc1cnc[nH]1)NC(=O)[C@@H](N)CCSC)C(=O)N[C@@H](CCCCN)C(=O)NCC(=O)N[C@@H](C)C(=O)O,1.26 10^4/M,79.4
CC[C@H](C)[C@H](NC(=O)[C@H](CC(N)=O)NC(=O)[C@H](CO)NC(=O)[C@H](Cc1ccccc1)NC(=O)[C@H](Cc1ccccc1)NC(=O)[C@H](CO)NC(=O)[C@@H](N)Cc1c[nH]c2ccccc12)C(=O)O (H-WSFFSNI-OH),5.4 10^4/M,18.5
